Square brackets hold non-standard residues; d marks the D form. Peptide text beside a SMILES is read from it. Ava = NCCCCC(=O)O
Columns and labels:
[1] = target: T1, ανβ3 receptor (Homo sapiens, UniProt P05106+P06756); experiment: whole cell adhesion inhibition assay (HBEC cells on vitronectin-coated plates); assay type: cell-based; conditions: for inhibition of HBEC adhesion (in words): 100 uM
T1 construct: endothelial cells known to express ανβ3 receptors on their surface (HBEC cells); endogenous in cells; host or cells: HBEC endothelial cells
T1 sequence (P06756 31-889 limits assumed): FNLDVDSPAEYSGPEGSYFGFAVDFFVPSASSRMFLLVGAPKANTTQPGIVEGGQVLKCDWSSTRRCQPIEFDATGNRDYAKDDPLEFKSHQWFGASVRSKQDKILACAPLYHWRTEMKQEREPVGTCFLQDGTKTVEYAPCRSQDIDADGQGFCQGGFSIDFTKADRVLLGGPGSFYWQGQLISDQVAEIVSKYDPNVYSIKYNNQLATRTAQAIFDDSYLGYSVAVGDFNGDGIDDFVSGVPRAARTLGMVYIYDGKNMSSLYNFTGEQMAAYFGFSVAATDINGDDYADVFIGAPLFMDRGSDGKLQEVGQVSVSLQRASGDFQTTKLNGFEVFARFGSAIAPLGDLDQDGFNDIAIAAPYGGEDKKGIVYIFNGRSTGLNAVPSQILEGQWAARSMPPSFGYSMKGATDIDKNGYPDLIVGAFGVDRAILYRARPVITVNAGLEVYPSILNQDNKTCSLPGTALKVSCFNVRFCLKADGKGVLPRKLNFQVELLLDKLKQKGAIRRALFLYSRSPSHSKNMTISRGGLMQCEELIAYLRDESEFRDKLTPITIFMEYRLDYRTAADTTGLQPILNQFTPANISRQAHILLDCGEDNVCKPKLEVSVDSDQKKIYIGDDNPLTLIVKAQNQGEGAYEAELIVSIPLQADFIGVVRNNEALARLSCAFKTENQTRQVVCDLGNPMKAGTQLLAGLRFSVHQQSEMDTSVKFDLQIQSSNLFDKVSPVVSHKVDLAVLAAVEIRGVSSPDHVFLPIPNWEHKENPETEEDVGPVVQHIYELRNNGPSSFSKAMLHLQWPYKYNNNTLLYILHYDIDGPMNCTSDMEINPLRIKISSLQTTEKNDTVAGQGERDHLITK
T1 sequence (P06756 891-1048 partner limits assumed): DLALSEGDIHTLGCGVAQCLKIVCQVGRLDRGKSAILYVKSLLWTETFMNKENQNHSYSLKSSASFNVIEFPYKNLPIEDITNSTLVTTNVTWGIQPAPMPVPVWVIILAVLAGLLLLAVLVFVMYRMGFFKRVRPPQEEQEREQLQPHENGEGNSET
T1 sequence (P05106 27-788): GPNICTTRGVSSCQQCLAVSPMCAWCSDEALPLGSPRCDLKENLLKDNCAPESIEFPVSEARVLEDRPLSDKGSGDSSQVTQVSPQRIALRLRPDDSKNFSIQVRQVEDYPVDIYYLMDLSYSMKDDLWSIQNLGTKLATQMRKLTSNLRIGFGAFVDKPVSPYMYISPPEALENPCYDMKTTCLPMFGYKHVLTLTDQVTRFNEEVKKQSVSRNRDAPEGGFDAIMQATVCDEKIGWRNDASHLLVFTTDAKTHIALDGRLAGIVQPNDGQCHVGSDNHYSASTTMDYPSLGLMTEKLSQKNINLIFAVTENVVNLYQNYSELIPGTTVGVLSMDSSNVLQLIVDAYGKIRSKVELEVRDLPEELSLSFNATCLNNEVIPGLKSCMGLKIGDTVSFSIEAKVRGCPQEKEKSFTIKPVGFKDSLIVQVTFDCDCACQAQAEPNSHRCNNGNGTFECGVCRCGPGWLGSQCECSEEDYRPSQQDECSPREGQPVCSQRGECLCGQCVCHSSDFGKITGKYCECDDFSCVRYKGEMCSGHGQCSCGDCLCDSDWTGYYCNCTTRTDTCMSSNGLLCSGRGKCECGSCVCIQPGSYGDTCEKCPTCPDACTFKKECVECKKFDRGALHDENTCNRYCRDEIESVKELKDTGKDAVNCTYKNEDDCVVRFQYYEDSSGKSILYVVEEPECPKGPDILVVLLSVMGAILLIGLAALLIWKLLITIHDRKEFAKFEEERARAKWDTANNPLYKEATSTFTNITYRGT
Excerpt: Biological Assay Studies: A biological whole cell adhesion inhibition assay was developed to evaluate the synthesized macrocyclic RGD mimetics. This assay uses endothelial cells known to express ανβ3 receptors on their surface (HBEC cells) and also known to require vitronectin binding at the ανβ3 receptor to initiate adhesion processes. Vitronectin was coated on microtiter plates and exposed to cell suspensions. As the target molecules prepared herein compete with vitronectin for binding at the ανβ3 they will interfere with the adhesion process. This can be used to quantify/rank their ability to do so. The amount of ανβ3 mediated adhesion was determined by cell staining with subsequent quantitation by UV absorption proportional to the amount of stain present. This test procedure has been optimized with regard to vitronectin quantities, cell numbers, volumes, times, and the cell staining process.

[2] = tested on: Leydig cell tumor; conditions: mouse-based Leydig cell tumor model; cited from earlier work

Row | SMILES | inhibition of HBEC adhesion (in words) [1] | decrease in amount of adhesion ([1]; 20 uMolar) [%] | reduction in tumor growth [2]
1 | [H]/N=C(/N)NCCCC(N)C(=O)NCC(=O)NC(CC(=O)O)C(=O)NC(CO)C(=O)O (stereo not shown) [RGDS] | decreased it completely | 69 | 
2 | NCCCCC(=O)NCC(=O)NC(CC(=O)O)C(=O)NC(CO)C(=O)O (stereo not shown) [lot A015-82PBS] (H-[Ava]GDS-OH; configuration not given here) | completely inactive |  | 
3 | NC(N)=Nc1cccc(C(=O)NCC(=O)NC(CC(=O)O)c2cc(Cl)cc(Cl)c2)c1 (stereo not shown) [SC-68448] |  |  | up to 80%

Reference: patent US20070104645A1, “Chelate based scaffolds in tumor targeting” (priority 2003, published 2007)
